Reference: patent publication US20230295234A1, “ANTIMICROBIAL PEPTIDOMIMETICS” (SPEXIS AG, priority 2020, published 2023)
Peptide text beside a SMILES is read from it.

Legend:
[1] = tested on: human red blood cells (hRBC); experiment: Hemolysis of human red blood cells; type: cell-based; settings: red cells of human, 1 h
Summary of the method: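 PBS-washed human red blood cells (20% v/v) were incubated with peptide at 200 μg/mL for 1 h at 37 °C with shaking. Supernatant OD was read at 540 nm after 8-fold dilution. Hemolysis is expressed as percent of the water control.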

[2] = tested on: Escherichia coli ATCC 25922; settings: ATCC 25922
Summary of the method: (§1)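 Broth microdilution; cation-adjusted MHII; inoculum ~5×10^5 CFU/mL from 0.5 McFarland saline suspension; peptide two-fold serial dilutions; polysorbate 80 0.002% final; peptide stock 1 mg/mL in water.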

[3] = tested on: Escherichia coli MCR-1 Af 45; settings: MCR-1 Af 45
Summary of the method: as §1

[4] = tested on: Klebsiella pneumoniae SSI3010; settings: SSI3010
Summary of the method: as §1

Compound	Escherichia coli ATCC 25922 MIC [2] [µg/mL]	Escherichia coli MCR-1 Af 45 MIC [3] [µg/mL]	Klebsiella pneumoniae SSI3010 MIC [4] [µg/mL]	Hemolysis at 0.2 g/L [1] [%]
CC[C@H](C)[C@H](NC(=O)[C@@H](NC(=O)[C@@H]1C[C@@H](O)CN1C(=O)[C@@H](NC(=O)[C@@H]1C[C@@H](O)CN1C(=O)[C@H](CCCCN)NC(=O)[C@@H](N)CCCCN)C(C)C)[C@@H](C)CC)C(=O)N[C@@H](Cc1ccc(O)cc1)C(=O)N[C@H]1CSSC[C@@H](C(=O)N[C@@H](CCN)C(=O)N[C@@H](CCCNC(=N)N)C(=O)N[C@@H](Cc2ccc(O)cc2)C(=O)O)NC(=O)[C@H](CCCCN)NC(=O)[C@@H](CCN)NC(=O)[C@H]([C@@H](C)O)NC(=O)[C@H](CCN)NC(=O)[C@H](CCCNC(=N)N)NC(=O)[C@H](CC(N)=O)NC1=O [Example 117, Lys-Lys-Hyp-Val-Hyp-Ile-Ile-Tyr-Cys-Asn-Arg-Dab-Thr-^DDab-Lys-Cys-Dab-Arg-Tyr] (HELM PEPTIDE1{K.K.[Hyp].V.[Hyp].I.I.Y.C.N.R.[Dab].T.[NCC[C@@H](N[*:1])C(=O)[*:2]].K.C.[Dab].R.Y}$PEPTIDE1,PEPTIDE1,9:R3-16:R3$$$V2.0)	0.03125	0.0625	0.125	0
CC[C@H](C)[C@H](NC(=O)[C@@H]1C[C@@H](O)CN1C(=O)[C@@H](NC(=O)[C@@H]1CCCN1C(=O)[C@H](CCCCN)NC(=O)[C@@H](N)CCCCN)C(C)C)C(=O)N[C@H](C(=O)N[C@@H](Cc1ccc(O)cc1)C(=O)N[C@@H]1C(=O)N[C@@H](CC(N)=O)C(=O)N[C@@H](CCCNC(=N)N)C(=O)N[C@@H](CCN)C(=O)N[C@@H]([C@@H](C)O)C(=O)N[C@H](CCN)C(=O)N[C@@H](CCCCN)C(=O)N[C@H](C(=O)N[C@@H](CCN)C(=O)N[C@@H](CCCNC(=N)N)C(=O)N[C@@H](Cc2ccc(O)cc2)C(=O)O)CSSC1(C)C)[C@@H](C)O [Example 118, Lys-Lys-Pro-Val-Hyp-Ile-Thr-Tyr-Pen-Asn-Arg-Dab-Thr-^DDab-Lys-Cys-Dab-Arg-Tyr] (HELM PEPTIDE1{K.K.P.V.[Hyp].I.T.Y.[Pen].N.R.[Dab].T.[NCC[C@@H](N[*:1])C(=O)[*:2]].K.C.[Dab].R.Y}$PEPTIDE1,PEPTIDE1,9:R3-16:R3$$$V2.0)	0.0625	0.0625	0.125	0
CC[C@H](C)[C@H](NC(=O)[C@@H]1C[C@@H](O)CN1C(=O)[C@@H](NC(=O)[C@@H]1CCCN1C(=O)[C@H](CCCCN)NC(=O)[C@@H](N)CCCCN)C(C)C)C(=O)N[C@H](C(=O)N[C@@H](Cc1ccc(O)cc1)C(=O)N[C@H]1CSSC[C@@H](C(=O)N[C@@H](CCN)C(=O)N[C@@H](CCCNC(=N)N)C(=O)N[C@@H](Cc2ccc(O)cc2)C(=O)O)NC(=O)[C@H](CCCCN)NC(=O)[C@@H](CCN)NC(=O)[C@H]([C@@H](C)O)NC(=O)[C@H](CCN)NC(=O)[C@H](CCCNC(=N)N)NC(=O)[C@H](CC(N)=O)NC1=O)[C@@H](C)O [Example 119, Lys-Lys-Pro-Val-Hyp-Ile-Thr-Tyr-Cys-Asn-Arg-Dab-Thr-^DDab-Lys-Cys-Dab-Arg-Tyr] (HELM PEPTIDE1{K.K.P.V.[Hyp].I.T.Y.C.N.R.[Dab].T.[NCC[C@@H](N[*:1])C(=O)[*:2]].K.C.[Dab].R.Y}$PEPTIDE1,PEPTIDE1,9:R3-16:R3$$$V2.0)	0.03125	0.03125	0.0625	1
CC[C@H](C)[C@H](NC(=O)[C@@H]1C[C@@H](O)CN1C(=O)[C@@H](NC(=O)[C@@H]1C[C@@H](O)CN1C(=O)[C@H](CCCCN)NC(=O)[C@@H](N)CCCCN)C(C)C)C(=O)N[C@H](C(=O)N[C@@H](Cc1ccc(O)cc1)C(=O)N[C@H]1CSSC[C@@H](C(=O)N[C@@H](CCN)C(=O)N[C@@H](CCCNC(=N)N)C(=O)N[C@@H](Cc2ccc(O)cc2)C(=O)O)NC(=O)[C@H](CCCCN)NC(=O)[C@@H](CCN)NC(=O)[C@H]([C@@H](C)O)NC(=O)[C@H](CCN)NC(=O)[C@H](CCCNC(=N)N)NC(=O)[C@H](CC(N)=O)NC1=O)[C@@H](C)O [Example 121, Lys-Lys-Hyp-Val-Hyp-Ile-Thr-Tyr-Cys-Asn-Arg-Dab-Thr-^DDab-Lys-Cys-Dab-Arg-Tyr] (HELM PEPTIDE1{K.K.[Hyp].V.[Hyp].I.T.Y.C.N.R.[Dab].T.[NCC[C@@H](N[*:1])C(=O)[*:2]].K.C.[Dab].R.Y}$PEPTIDE1,PEPTIDE1,9:R3-16:R3$$$V2.0)	0.03125	0.0625	0.125	0

Continued, in another order:

Escherichia coli ATCC 25922 MIC [2] [µg/mL]	Escherichia coli MCR-1 Af 45 MIC [3] [µg/mL]	Klebsiella pneumoniae SSI3010 MIC [4] [µg/mL]	Compound	Hemolysis at 0.2 g/L [1] [%]
0.0625	0.0625	0.125	CC[C@H](C)[C@H](NC(=O)[C@@H](NC(=O)[C@@H]1C[C@@H](O)CN1C(=O)[C@@H](NC(=O)[C@@H]1C[C@@H](O)CN1C(=O)[C@H](CCCCN)NC(=O)[C@@H](N)CCCCN)C(C)C)[C@@H](C)CC)C(=O)N[C@@H](Cc1ccc(O)cc1)C(=O)N[C@@H]1C(=O)N[C@@H](CC(N)=O)C(=O)N[C@@H](CCCNC(=N)N)C(=O)N[C@@H](CCN)C(=O)N[C@@H]([C@@H](C)O)C(=O)N[C@H](CCN)C(=O)N[C@@H](CCCCN)C(=O)N[C@H](C(=O)N[C@@H](CCN)C(=O)N[C@@H](CCCNC(=N)N)C(=O)N[C@@H](Cc2ccc(O)cc2)C(=O)O)CSSC1(C)C [Example 116, Lys-Lys-Hyp-Val-Hyp-Ile-Ile-Tyr-Pen-Asn-Arg-Dab-Thr-^DDab-Lys-Cys-Dab-Arg-Tyr] (HELM PEPTIDE1{K.K.[Hyp].V.[Hyp].I.I.Y.[Pen].N.R.[Dab].T.[NCC[C@@H](N[*:1])C(=O)[*:2]].K.C.[Dab].R.Y}$PEPTIDE1,PEPTIDE1,9:R3-16:R3$$$V2.0)	0
0.0625	0.125	0.125	CC[C@H](C)[C@H](NC(=O)[C@@H]1C[C@@H](O)CN1C(=O)[C@@H](NC(=O)[C@@H]1C[C@@H](O)CN1C(=O)[C@H](CCCCN)NC(=O)[C@@H](N)CCCCN)C(C)C)C(=O)N[C@H](C(=O)N[C@@H](Cc1ccc(O)cc1)C(=O)N[C@@H]1C(=O)N[C@@H](CC(N)=O)C(=O)N[C@@H](CCCNC(=N)N)C(=O)N[C@@H](CCN)C(=O)N[C@@H]([C@@H](C)O)C(=O)N[C@H](CCN)C(=O)N[C@@H](CCCCN)C(=O)N[C@H](C(=O)N[C@@H](CCN)C(=O)N[C@@H](CCCNC(=N)N)C(=O)N[C@@H](Cc2ccc(O)cc2)C(=O)O)CSSC1(C)C)[C@@H](C)O [Example 120, Lys-Lys-Hyp-Val-Hyp-Ile-Thr-Tyr-Pen-Asn-Arg-Dab-Thr-^DDab-Lys-Cys-Dab-Arg-Tyr] (HELM PEPTIDE1{K.K.[Hyp].V.[Hyp].I.T.Y.[Pen].N.R.[Dab].T.[NCC[C@@H](N[*:1])C(=O)[*:2]].K.C.[Dab].R.Y}$PEPTIDE1,PEPTIDE1,9:R3-16:R3$$$V2.0)	0
0.0625	0.125	0.125	CC[C@H](C)[C@H](NC(=O)[C@@H]1C[C@@H](O)CN1C(=O)[C@@H](NC(=O)[C@@H]1C[C@@H](O)CN1C(=O)[C@H](CCCCN)NC(=O)[C@@H](N)CCCCN)C(C)C)C(=O)N[C@H](C(=O)N[C@@H](Cc1ccc(O)cc1)C(=O)N[C@@H]1C(=O)N[C@@H](Cc2c[nH]cn2)C(=O)N[C@@H](CCCNC(=N)N)C(=O)N[C@@H](CCN)C(=O)N[C@@H]([C@@H](C)O)C(=O)N[C@H](CCN)C(=O)N[C@@H](CCCCN)C(=O)N[C@H](C(=O)N[C@@H](CCN)C(=O)N[C@@H](CCCNC(=N)N)C(=O)N[C@@H](Cc2ccc(O)cc2)C(=O)O)CSSC1(C)C)[C@@H](C)O [Example 122, Lys-Lys-Hyp-Val-Hyp-Ile-Thr-Tyr-Pen-His-Arg-Dab-Thr-^DDab-Lys-Cys-Dab-Arg-Tyr] (HELM PEPTIDE1{K.K.[Hyp].V.[Hyp].I.T.Y.[Pen].H.R.[Dab].T.[NCC[C@@H](N[*:1])C(=O)[*:2]].K.C.[Dab].R.Y}$PEPTIDE1,PEPTIDE1,9:R3-16:R3$$$V2.0)	0
0.125	0.0625	0.25	CC[C@H](C)[C@H](NC(=O)[C@@H]1C[C@@H](O)CN1C(=O)[C@@H](NC(=O)[C@@H]1C[C@@H](O)CN1C(=O)[C@H](CCCCN)NC(=O)[C@@H](N)CCCCN)C(C)C)C(=O)N[C@H](C(=O)N[C@@H](Cc1ccc(O)cc1)C(=O)N[C@@H]1C(=O)N[C@@H](CC(N)=O)C(=O)N[C@@H](CCCNC(=N)N)C(=O)N[C@@H](CCN)C(=O)N[C@@H]([C@@H](C)O)C(=O)N[C@H](CCN)C(=O)N[C@@H](CCCCN)C(=O)N[C@H](C(=O)N[C@@H](CO)C(=O)N[C@@H](CCCNC(=N)N)C(=O)N[C@@H](Cc2ccc(O)cc2)C(=O)O)CSSC1(C)C)[C@@H](C)O [Example 123, Lys-Lys-Hyp-Val-Hyp-Ile-Thr-Tyr-Pen-Asn-Arg-Dab-Thr-^DDab-Lys-Cys-Ser-Arg-Tyr] (HELM PEPTIDE1{K.K.[Hyp].V.[Hyp].I.T.Y.[Pen].N.R.[Dab].T.[NCC[C@@H](N[*:1])C(=O)[*:2]].K.C.S.R.Y}$PEPTIDE1,PEPTIDE1,9:R3-16:R3$$$V2.0)	0
